For 14 compounds, GI50 and TGI results are on record in PubChem BioAssay (NCI).

Test systems include 786-0 renal; ACHN renal; CCRF-CEM leukemia; MALME-3M melanoma; MCF7 breast; MDA-MB-231 breast; NCI-H23 lung; SN12C renal; U251 CNS; RPMI-8226 leukemia.
Holding throughout (experiment): growth of human tumour cells (NCI), 48 h

Structures are written as SMILES. Several values for one entry are separate records, joined by “and”; a condition that tells them apart may be missing. Equal values may be shown once.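 Growth conditions: 96-well plates. Treatment: test compound, 48 hours, 5 concentrations. Analysis: linear interpolation between bracketing concentrations; unreached endpoints set to highest concentration. Here, GI50 denotes the concentration required for 50% inhibition of growth. The concentration for full growth arrest is given as TGI.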

As to `C/C=C1/CN2CCC34c5ccccc5N5C(=O)C(C6CC78c9ccccc9N9C(=O)C=CC(C%10CC7N6C/C%10=C/C)C98)=CC(C1CC23)C54` (stereo not given), the GI50 in the test on 786-0 renal is 5.51 µM; in the test with ACHN renal, 11.7 µM; with CCRF-CEM leukemia it was 1.6 µM; in the test on MCF7 breast, 2.9 µM; with MDA-MB-231 breast it was 13.4 µM; in the test on NCI-H23 lung, 3.94 µM. Moreover, the GI50 was 11.9 µM in the test with SN12C renal and 4.66 µM in the test on U251 CNS. Besides, the TGI in the test with 786-0 renal was 11.3 µM and 20.1 µM; in the test with ACHN renal, 13.6 µM and 24.3 µM; in the test with CCRF-CEM leukemia, 2.05 µM and 4.39 µM; with MALME-3M melanoma, 14.5 µM; with MCF7 breast it was 8.15 µM and 12 µM; with MDA-MB-231 breast, 8.36 µM and 29 µM. The TGI is 13.1 µM and 15.5 µM with NCI-H23 lung; 14.5 µM and 26.8 µM in the test with SN12C renal; 12.1 µM and 17.3 µM with U251 CNS.
As for `c1ccc2c(c1)CCCc1nnc3nc4ccccc4n3c1-2`, the GI50 in the test with 786-0 renal is 5.12 µM; in the test on ACHN renal it was 3.65 µM; in the test on CCRF-CEM leukemia it was 3.68 µM; in the test with MCF7 breast, 4.1 µM; in the test with MDA-MB-231 breast, 4.98 µM; with NCI-H23 lung it was 7.31 µM. The GI50 in the test on RPMI-8226 leukemia is 2.96 µM; in the test on SN12C renal, 8.15 µM; in the test with U251 CNS, 3.29 µM. Further, the TGI in the test with 786-0 renal, with ACHN renal, in the test on CCRF-CEM leukemia, with MCF7 breast, in the test on MDA-MB-231 breast and with NCI-H23 lung was above 100 µM throughout. Also, the TGI was 29.1 µM in the test with RPMI-8226 leukemia, above 100 µM in the test with SN12C renal and 24.1 µM in the test with U251 CNS.
For the compound `COc1ccc(N2CCN(c3nc(-c4ccccn4)nc4sc5c(c34)CCCCCC5)CC2)cc1`, the GI50 with 786-0 renal is 8.45 µM; with ACHN renal it was 5.09 µM; with CCRF-CEM leukemia it was 4.32 µM; in the test with MCF7 breast it was 3.15 µM; in the test with MDA-MB-231 breast, 49.6 µM; in the test with NCI-H23 lung, 16.9 µM. Moreover, the GI50 with RPMI-8226 leukemia was 3.74 µM; in the test with SN12C renal, 5.99 µM; in the test on U251 CNS, 4.26 µM. Also, the TGI with 786-0 renal, with ACHN renal, in the test with CCRF-CEM leukemia, in the test on MCF7 breast, with MDA-MB-231 breast and in the test with NCI-H23 lung was above 100 µM in each case. For the same compound, the TGI with RPMI-8226 leukemia, in the test with SN12C renal and with U251 CNS was above 100 µM each time.
Regarding `O=C(Nc1cccc(Cl)c1)Nc1cc(C(F)(F)F)ccc1Cl`, the GI50 in the test with 786-0 renal was 2.86 µM; in the test on ACHN renal, 2.54 µM; with CCRF-CEM leukemia, 3.24 µM; in the test with MCF7 breast, 3.13 µM; in the test on MDA-MB-231 breast, 1.97 µM; in the test on NCI-H23 lung, 2.44 µM. Moreover, the GI50 in the test with RPMI-8226 leukemia is 2.33 µM; in the test on SN12C renal, 3.01 µM; with U251 CNS, 3.32 µM. In addition, the TGI is 12 µM in the test on 786-0 renal; 7.16 µM with ACHN renal; above 100 µM in the test with CCRF-CEM leukemia; 18.1 µM in the test on MCF7 breast; 4.23 µM with MDA-MB-231 breast; 6.59 µM in the test with NCI-H23 lung. For the same compound, the TGI with RPMI-8226 leukemia worked out at 7.13 µM; with SN12C renal, 11.5 µM; in the test with U251 CNS, 8.56 µM.
Take `Cc1ccc(O)c(C(=O)/C=C/c2ccccc2)c1`: the TGI in the test with 786-0 renal, with ACHN renal, in the test with CCRF-CEM leukemia, with MCF7 breast, with MDA-MB-231 breast and in the test with NCI-H23 lung was above 100 µM in each case. In addition, the TGI with RPMI-8226 leukemia, in the test on SN12C renal and in the test on U251 CNS was above 100 µM each time.
On to `COC1C[C@H](O[C@@H]2C[C@H](O[C@@H]3C[C@H](O[C@@H]4C(=O)c5c(cc6cc(O[C@H]7C[C@@H](O[C@H]8C[C@@H](O)[C@H](O)C(C)O8)[C@H](O)C(C)O7)c(C)c(O)c6c5O)C[C@H]4C(OC)C(=O)[C@@H](O)[C@@H](C)O)OC(C)[C@H]3O)OC(C)[C@@H]2O)OC(C)[C@@H]1O` (stereo not given in full), for which the GI50 is 0.116 µM in the test with 786-0 renal; 0.252 µM in the test with ACHN renal; 0.127 µM in the test with CCRF-CEM leukemia; 0.0861 µM in the test with MALME-3M melanoma; 0.0493 µM with MCF7 breast; 0.0899 µM in the test on NCI-H23 lung. In addition, the GI50 with SN12C renal was 0.113 µM; in the test on U251 CNS, 0.0631 µM. The TGI in the test on 786-0 renal is above 32.5 µM; in the test on ACHN renal it was 31.1 µM; in the test on CCRF-CEM leukemia it was above 32.5 µM; in the test on MALME-3M melanoma, 0.437 µM; in the test with MCF7 breast, above 32.5 µM; in the test on NCI-H23 lung it was 0.695 µM. The TGI with SN12C renal is above 32.5 µM; in the test on U251 CNS it was 29.6 µM.
On to `Fc1ccc(Nc2ccnc(N3CCN(c4ccnc5cc(Cl)ccc45)CC3)n2)cc1`, for which the GI50 with 786-0 renal is 2.28 µM; in the test on ACHN renal it was 2.5 µM; with CCRF-CEM leukemia, 2.74 µM; in the test on MCF7 breast, 2.36 µM; with MDA-MB-231 breast, 1.51 µM; in the test on RPMI-8226 leukemia it was 2.19 µM. Further, the GI50 is 2.57 µM with SN12C renal and 1.87 µM in the test on U251 CNS. Further, the TGI is 6.26 µM in the test on 786-0 renal; above 100 µM in the test on ACHN renal; 10.5 µM in the test with CCRF-CEM leukemia; 8.26 µM with MCF7 breast; 4.33 µM with MDA-MB-231 breast; 6.22 µM in the test with RPMI-8226 leukemia. The TGI was above 100 µM with SN12C renal and 5.27 µM in the test with U251 CNS.
Turning to `CCN(CC(O)COc1ccc2c(c1)[n+]([O-])nc(N)[n+]2[O-])C(C)=O` (stereo not given), the TGI with 786-0 renal, in the test with ACHN renal, in the test with CCRF-CEM leukemia, in the test with MCF7 breast, in the test with MDA-MB-231 breast and with NCI-H23 lung was above 100 µM throughout. Also, the TGI in the test on RPMI-8226 leukemia, with SN12C renal and in the test with U251 CNS was above 100 µM each time.
Regarding `OCC1OC(N2CCN(C3OC(CO)C(O)C(O)C3O)CC2)C(O)C(O)C1O` (stereo not given), the TGI in the test on 786-0 renal, with ACHN renal, with MALME-3M melanoma, in the test with MCF7 breast, in the test with MDA-MB-231 breast and in the test on NCI-H23 lung was above 100 µM in each case. Further, the TGI in the test with RPMI-8226 leukemia, in the test on SN12C renal and with U251 CNS was above 100 µM in each case.
With `c1ccc2cc(Cn3c(-c4cccc5ccccc45)[n+](Cc4ccc5ccccc5c4)c4c5ccccc5c5ccccc5c43)ccc2c1`, the GI50 in the test with 786-0 renal was 0.308 µM; with CCRF-CEM leukemia it was 0.362 µM; in the test on MALME-3M melanoma, 0.285 µM; in the test on MCF7 breast, 0.244 µM; with NCI-H23 lung, 0.248 µM; in the test on RPMI-8226 leukemia, 0.101 µM. In the test on U251 CNS, the GI50 was 0.165 µM. Besides, the TGI in the test with 786-0 renal amounted to 1.7 µM; in the test on CCRF-CEM leukemia it was 2.31 µM; with MALME-3M melanoma it was 1.45 µM; in the test on MCF7 breast it was 1.2 µM; in the test on NCI-H23 lung it was 1.15 µM; in the test on RPMI-8226 leukemia, 0.861 µM. Besides, the TGI in the test with U251 CNS worked out at 1.42 µM.
`Oc1ccc(Cl)cc1N=Nc1c(O)ccc2ccccc12`: the TGI in the test with 786-0 renal was above 100 µM; in the test with ACHN renal, above 100 µM; in the test on CCRF-CEM leukemia it was above 100 µM; with MALME-3M melanoma, 80.3 µM; with MDA-MB-231 breast it was above 100 µM; with NCI-H23 lung, above 100 µM. The TGI with RPMI-8226 leukemia, with SN12C renal and with U251 CNS was above 100 µM in each case.
As to `Cc1ccc2c(c1)n([O-])c(C(F)(F)F)c(C(=O)c1ccco1)[n+]2=O`, the GI50 was 1.22 µM in the test on 786-0 renal; 0.217 µM with ACHN renal; 0.0743 µM in the test on CCRF-CEM leukemia; 0.762 µM in the test on MCF7 breast; 0.929 µM in the test on MDA-MB-231 breast; 0.433 µM with NCI-H23 lung. In addition, the GI50 was 0.357 µM in the test with RPMI-8226 leukemia, 0.833 µM with SN12C renal and 0.632 µM in the test with U251 CNS. The TGI was determined as 6.59 µM in the test on 786-0 renal; 1 µM in the test with ACHN renal; 0.859 µM in the test with CCRF-CEM leukemia; 4.9 µM with MCF7 breast; 2.65 µM in the test on MDA-MB-231 breast; 1.52 µM with NCI-H23 lung. The TGI is 2.69 µM with RPMI-8226 leukemia, 2.5 µM in the test with SN12C renal and 5.15 µM with U251 CNS.
For `O=C(O)[C@@H](Cc1ccccc1)NS(=O)(=O)c1ccc(-c2ccccc2)cc1`, the GI50 in the test on 786-0 renal, with ACHN renal, in the test with CCRF-CEM leukemia, in the test on MALME-3M melanoma, with MCF7 breast and in the test on MDA-MB-231 breast was above 100 µM throughout. The GI50 with NCI-H23 lung, in the test on SN12C renal and in the test with U251 CNS was above 100 µM in each case. Further, the TGI with 786-0 renal, in the test on ACHN renal, with CCRF-CEM leukemia, with MALME-3M melanoma, with MCF7 breast and in the test on MDA-MB-231 breast was above 100 µM in each case. In addition, the TGI in the test on NCI-H23 lung, with SN12C renal and in the test with U251 CNS was above 100 µM in each case.
For the compound `[N-]=[N+]=NCCCn1c2c(c3ccccc3c1=O)C(=O)c1cc3c(cc1-2)OCO3`, the GI50 is 31.9 µM in the test with 786-0 renal; 24.1 µM in the test with ACHN renal; 8.3 µM in the test on CCRF-CEM leukemia; 0.817 µM in the test on MCF7 breast; above 100 µM in the test on MDA-MB-231 breast; above 100 µM in the test on RPMI-8226 leukemia. Besides, the GI50 is above 100 µM with SN12C renal and 28.7 µM in the test with U251 CNS. Also, the TGI with 786-0 renal, in the test on ACHN renal, with CCRF-CEM leukemia, with MCF7 breast, in the test on MDA-MB-231 breast and with RPMI-8226 leukemia was above 100 µM each time. Further, the TGI with SN12C renal and in the test with U251 CNS was above 100 µM throughout.
